Laboratory results from patent US9435795B2, “Enhanced deposition of chromogens utilizing pyrimidine analogs” (Ventana Medical Systems, Inc., priority 2010, dated 2016).

Key:
[1] = molecular target: T1, horseradish peroxidase (HRP) (Armoracia rusticana, UniProt P00433); assay: Plate assay: kinetic screening of enhancers of HRP-mediated DAB oxidation (ultraView Detection Kit, OD 455 nm); format: biochemical; conditions: for Vmax (apparent, HRP-oxidized DAB): no enhancer 18.50; for Percent increase of apparent Vmax of HRP: relative to uView Vmax without enhancement
T1 construct: purchased VMSI (Ventana Medical Systems, Inc.) 760-500: 253-4290, 253-4292 and 253-4293
Procedure: The additives were directly added to a well containing the necessary reagents from the ultraView™ Detection Kit (VMSI 760-500: 253-4290, 253-4292 and 253-4293) in 1× Reaction Buffer (VMSI 950-300) and 0.1% fish gelatin. Fish gelatin was used to help disperse the oxidized DAB and inhibit its precipitation from solution. The ultraView™ Detection Kit was diluted to measure the formation of oxidized DAB by UV-VIS at 455 nm. Additives were tested at set concentrations to determine enhancement in the DAB oxidation reaction. The data were graphed, and the apparent maximum velocity (Vmax) was calculated at each additive concentration level.

[2] = Compatibility and stability of reformulated DAB Chromogen solution with additive; format: physicochemical; conditions: higher concentrations of imidazole; 50 mM L-histidine
[3] = molecular target: T1, horseradish peroxidase (HRP); assay: Plate assay: enhancers added sequentially to ultraView Detection Kit (synergistic/antagonistic effects); format: biochemical; conditions: NMO added to mixture 4; 50 mM L-histidine or 10 mM pyrimidine added to mixture 5
Procedure: The same concentration of reagents from the ultraView™ Detection Kit (VMSI 760-500: 253-4290, 253-4292 and 253-4293) were used in 1× Reaction Buffer™ containing 0.1% fish gelatin for each trial. In each trial, the enhancers were added together one at a time.

[4] = molecular target: T2, ultraView HRP multimer (Armoracia rusticana, UniProt P00433); assay: Michaelis-Menten kinetics of HRP-oxidized DAB with enhanced DAB chromogen mixtures; format: biochemical, horseradish
T2 construct: purchased Ventana Medical Systems (ultraView kit component)
T2 sequence (P00433 31-338 limits assumed): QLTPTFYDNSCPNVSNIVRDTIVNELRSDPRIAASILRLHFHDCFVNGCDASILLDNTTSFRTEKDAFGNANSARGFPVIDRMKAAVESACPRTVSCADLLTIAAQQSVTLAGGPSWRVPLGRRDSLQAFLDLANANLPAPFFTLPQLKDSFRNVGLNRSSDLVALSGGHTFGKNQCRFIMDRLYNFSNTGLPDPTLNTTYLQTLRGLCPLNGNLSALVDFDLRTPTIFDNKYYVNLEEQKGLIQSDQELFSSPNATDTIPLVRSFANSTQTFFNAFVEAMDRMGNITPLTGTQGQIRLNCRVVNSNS
Procedure: To further study the synergistic effect in the increased apparent Vmax for HRP-oxidized DAB, Michaelis-Menten kinetics were calculated for the best enhanced DAB chromogen mixtures in Table 3. […] The definition of Vmax=kcat·[E]total when the enzyme substrate concentration was at saturation levels. When the concentration of enzyme was kept constant, the apparent Vmax is proportional to kcat (the apparent turnover for HRP or the first order rate constant).

[5] = test system: HER-2 positive CaLu3 carcinoma cell lines; assay: ISH tissue staining with HER2 DNA probe on HER-2 3-in-1 mouse xenografts; conditions: 10 mM in DAB Chromogen solution; CaLu3 carcinoma cells
Procedure: ISH tissue staining was examined using enhanced DAB solutions. HER-2 3-in-1 mouse xenografts of HER-2 positive carcinoma cell lines CaLu3, ZR-75-1 and MCF7 were treated with HER2 DNA probe (VMSI 480-4495) and stained with the ultraView™ DAB Chromogen solution or an enhanced DAB Chromogen solution containing 10 mM L-histidine (see FIGS. 21-22). […] The increased DAB deposition was marginal for the strongest ISH signals, but signal intensity for the weaker DAB signals was raised throughout the tissue. The same observation was made with enhanced DAB deposition in IHC.

[6] = test system: bcl2 in tonsil tissue; assay: TSA-IHC tissue staining of bcl2 in tonsil tissue (TA-HQ deposition); conditions: 10 mM in DAB Chromogen solution; 16 minute primary Ab incubation
Procedure: Enhanced DAB deposition was evaluated on a TSA-IHC tissue staining of bcl2 in tonsil tissue. […] Tyramide deposition was performed with and without 10 mM 2-hydroxypyrimidine. […] The percent of cells stained with DAB increased in areas with low bcl2 antigen expression. Formalin fixed paraffin embedded tonsil tissue was mounted on Superfrost slides, deparaffinized and antigen retrieved using CC1 bulk reagent (Ventana® p/n 950-124). […] Slides were counterstained using Hematoxylin II (Ventana® p/n 790-2208) and Bluing Reagent (Ventana® p/n760-2037). The slides were dehydrated using gradient alcohols, cover slipped and viewed using a bright field microscope (FIGS. 23-26).

Vmax (apparent, HRP-oxidized DAB) ([1]; enhancer 10 mM): 21.84 mOD/min
Percent increase of apparent Vmax of HRP ([1]; enhancer 10 mM): 18%
Vmax (apparent, HRP-oxidized DAB) ([1]; enhancer 50 mM, (sat) = reaction rate saturated by start of UV-VIS analysis): 44.00 mOD/min
Percent increase of apparent Vmax of HRP ([1]; enhancer 50 mM): 138%
Vmax (apparent, HRP-oxidized DAB) ([1]; enhancer 100 mM, (sat) = reaction rate saturated by start of UV-VIS analysis): 72.00 mOD/min
Precipitation of DAB from reformulated DAB Chromogen solution [2]: caused the precipitation of DAB
Effect on apparent velocity of HRP when added to a preceding assay mixture of Table 2 [3]: increased the apparent velocity of HRP
Vmax ([4]; 10 mM buffer salt with 10 mM pyrimidine, no enhancer 228): 300 mOD/min
Vmax ([4]; 50 mM buffer salt with 10 mM 2-hydroxypyrimidine (FIG. 19: also 10 mM boric acid, 10 mM calcium chloride)): 317 mOD/min
SMILES: N[C@@H](Cc1c[nH]cn1)C(=O)O [L-Histidine]
DAB deposition in ISH staining (in words) [5]: increased the deposition of DAB
DAB deposition in TSA-IHC staining (in words) [6]: increased the DAB deposition on tissue
